The data set relates to cancer cells. Kind of data set: MTT cytotoxic assay of esterification products (Cytotoxicity activity). It is filed as cell-based, human. As to conditions: esterification products isolated with HPLC; graded strong / moderate / weak. In a few lines:
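Cytotoxicity was read by MTT (Carmichael method, modified), with cells seeded 24 h ahead of treatment. Sixteen human cancer lines spanning bone, lung, bladder, ovary, colon, pancreas, prostate, skin, mouth, kidney, breast, liver, brain, leukemia and cervix were used. Test samples were acyl chloride esterification products of triterpenes, as mixtures or HPLC-purified compounds.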

`CC=C(C)C(=O)OCC1(C)C(O)CCC2(C)C1CCC1(C)C2CC=C2C3CC(C)(C)C(OC(C)=O)C(O)C3(CO)C(O)CC21C` (stereo not shown) [Tig—Acy—5]: the Cytotoxicity activity entry was “moderate”. For `CC=C(C)C(=O)OCC1(C)C(O)CCC2(C)C1CCC1(C)C2CC=C2C3CC(C)(C)C(O)C(OC(C)=O)C3(CO)C(O)CC21C` (stereo not shown) [Tig—Acy—6], the Cytotoxicity activity result is recorded as “moderate”. The entry for `CC=C(C)C(=O)OCC1(C)C(O)CCC2(C)C1CCC1(C)C2CC=C2C3CC(C)(C)C(O)C(O)C3(COC(=O)C(C)=CC)C(O)CC21C` (stereo not shown) [Tig—Ang—1] is “strong”; for `CC=C(C)C(=O)OCC1(C)C(O)CCC2(C)C1CCC1(C)C2CC=C2C3CC(C)(C)C(OC(=O)C(C)=CC)C(O)C3(COC(=O)C(C)=CC)C(O)CC21C` (stereo not shown) [Tig—Ang—2] it is “moderate”. The entry for `CC=C(C)C(=O)OCC1(C)C(O)CCC2(C)C1CCC1(C)C2CC=C2C3CC(C)(C)C(O)C(OC(=O)C(C)=CC)C3(COC(=O)C(C)=CC)C(O)CC21C` (stereo not shown) [Tig—Ang—3] is “moderate”; for `CC=C(C)C(=O)OCC1(C)C(OC(=O)C(C)=CC)CCC2(C)C1CCC1(C)C2CC=C2C3CC(C)(C)C(O)C(O)C3(COC(=O)C(C)=CC)C(O)CC21C` (stereo not shown) [Tig—Ang—4] it is “moderate”. The same measure for `CC=C(C)C(=O)OCC1(C)C(O)CCC2(C)C1CCC1(C)C2CC=C2C3CC(C)(C)C(OC(=O)C(C)=CC)C(O)C3(CO)C(O)CC21C` (stereo not shown) [Tig—Ang—5]: “moderate”; for `CC=C(C)C(=O)OCC1(C)C(O)CCC2(C)C1CCC1(C)C2CC=C2C3CC(C)(C)C(O)C(OC(=O)C(C)=CC)C3(CO)C(O)CC21C` (stereo not shown) [Tig—Ang—6]: “moderate”; for `CC=C(C)C(=O)OCC1(C)C(O)CCC2(C)C1CCC1(C)C2CC=C2C3CC(C)(C)C(O)C(O)C3(COC(=O)C=Cc3ccccc3)C(O)CC21C` (stereo not shown) [Tig—Cin—1]: “strong”.

Consider `CC=C(C)C(=O)OCC1(C)C(O)CCC2(C)C1CCC1(C)C2CC=C2C3CC(C)(C)C(OC(=O)C=Cc4ccccc4)C(O)C3(COC(=O)C=Cc3ccccc3)C(O)CC21C` (stereo not shown) [Tig—Cin—2], for which the Cytotoxicity activity result is “moderate”.

On to `CC=C(C)C(=O)OCC1(C)C(O)CCC2(C)C1CCC1(C)C2CC=C2C3CC(C)(C)C(O)C(OC(=O)C=Cc4ccccc4)C3(COC(=O)C=Cc3ccccc3)C(O)CC21C` (stereo not shown) [Tig—Cin—3], for which the Cytotoxicity activity result is reported as “moderate”.

For the compound `CC=C(C)C(=O)OCC1(C)C(OC(=O)C=Cc2ccccc2)CCC2(C)C1CCC1(C)C2CC=C2C3CC(C)(C)C(O)C(O)C3(COC(=O)C=Cc3ccccc3)C(O)CC21C` (stereo not shown) [Tig—Cin—4], the Cytotoxicity activity entry is “moderate”. For the compound `CC=C(C)C(=O)OCC1(C)C(O)CCC2(C)C1CCC1(C)C2CC=C2C3CC(C)(C)C(OC(=O)C=Cc4ccccc4)C(O)C3(CO)C(O)CC21C` (stereo not shown) [Tig—Cin—5], the Cytotoxicity activity entry is recorded as “moderate”. Take `CC=C(C)C(=O)OCC1(C)C(O)CCC2(C)C1CCC1(C)C2CC=C2C3CC(C)(C)C(O)C(OC(=O)C=Cc4ccccc4)C3(CO)C(O)CC21C` (stereo not shown) [Tig—Cin—6]: the Cytotoxicity activity entry is reported as “moderate”. Regarding `CC=CC(=O)OCC12C(O)CC3(C)C(=CCC4C5(C)CCC(O)C(C)(COC(=O)C(C)=CC)C5CCC43C)C1CC(C)(C)C(O)C2O` (stereo not shown) [Tig—Cro—1], the Cytotoxicity activity result is on record as “strong”. The entry for `CC=CC(=O)OCC12C(O)CC3(C)C(=CCC4C5(C)CCC(O)C(C)(COC(=O)C(C)=CC)C5CCC43C)C1CC(C)(C)C(OC(=O)C=CC)C2O` (stereo not shown) [Tig—Cro—2] is “moderate”. The same measure for `CC=CC(=O)OCC12C(O)CC3(C)C(=CCC4C5(C)CCC(O)C(C)(COC(=O)C(C)=CC)C5CCC43C)C1CC(C)(C)C(O)C2OC(=O)C=CC` (stereo not shown) [Tig—Cro—3]: “moderate”; for `CC=CC(=O)OCC12C(O)CC3(C)C(=CCC4C5(C)CCC(OC(=O)C=CC)C(C)(COC(=O)C(C)=CC)C5CCC43C)C1CC(C)(C)C(O)C2O` (stereo not shown) [Tig—Cro—4]: “moderate”; for `CC=CC(=O)OC1C(O)C2(CO)C(O)CC3(C)C(=CCC4C5(C)CCC(O)C(C)(COC(=O)C(C)=CC)C5CCC43C)C2CC1(C)C` (stereo not shown) [Tig—Cro—5]: “moderate”.

On to `CC=CC(=O)OC1C(O)C(C)(C)CC2C3=CCC4C5(C)CCC(O)C(C)(COC(=O)C(C)=CC)C5CCC4(C)C3(C)CC(O)C21CO` (stereo not shown) [Tig—Cro—6], for which the Cytotoxicity activity result was “moderate”. The same measure for `CC=C(C)C(=O)OCC1(C)C(O)CCC2(C)C1CCC1(C)C2CC=C2C3CC(C)(C)C(O)C(O)C3(COC(=O)C(CC)CC)C(O)CC21C` (stereo not shown) [Tig—Eth—1]: “strong”. The same measure for `CC=C(C)C(=O)OCC1(C)C(O)CCC2(C)C1CCC1(C)C2CC=C2C3CC(C)(C)C(OC(=O)C(CC)CC)C(O)C3(COC(=O)C(CC)CC)C(O)CC21C` (stereo not shown) [Tig—Eth—2]: “moderate”; for `CC=C(C)C(=O)OCC1(C)C(O)CCC2(C)C1CCC1(C)C2CC=C2C3CC(C)(C)C(O)C(OC(=O)C(CC)CC)C3(COC(=O)C(CC)CC)C(O)CC21C` (stereo not shown) [Tig—Eth—3]: “moderate”. The entry for `CC=C(C)C(=O)OCC1(C)C(O)CCC2(C)C1CCC1(C)C2CC=C2C3CC(C)(C)C(OC(=O)C(CC)CC)C(O)C3(CO)C(O)CC21C` (stereo not shown) [Tig—Eth—5] is “moderate”; for `CC=C(C)C(=O)OCC1(C)C(O)CCC2(C)C1CCC1(C)C2CC=C2C3CC(C)(C)C(O)C(OC(=O)C(CC)CC)C3(CO)C(O)CC21C` (stereo not shown) [Tig—Eth—6] it is “moderate”; for `CC=C(C)C(=O)OCC1(C)C(O)CCC2(C)C1CCC1(C)C2CC=C2C3CC(C)(C)C(O)C(O)C3(COC(=O)CCCCC)C(O)CC21C` (stereo not shown) [Tig—Hex—1] it is “strong”. As to `CC=C(C)C(=O)OCC1(C)C(O)CCC2(C)C1CCC1(C)C2CC=C2C3CC(C)(C)C(OC(=O)CCCCC)C(O)C3(COC(=O)CCCCC)C(O)CC21C` (stereo not shown) [Tig—Hex—2], the Cytotoxicity activity result is “moderate”. The entry for `CC=C(C)C(=O)OCC1(C)C(O)CCC2(C)C1CCC1(C)C2CC=C2C3CC(C)(C)C(O)C(OC(=O)CCCCC)C3(COC(=O)CCCCC)C(O)CC21C` (stereo not shown) [Tig—Hex—3] is “moderate”; for `CC=C(C)C(=O)OCC1(C)C(OC(=O)CCCCC)CCC2(C)C1CCC1(C)C2CC=C2C3CC(C)(C)C(O)C(O)C3(COC(=O)CCCCC)C(O)CC21C` (stereo not shown) [Tig—Hex—4] it is “moderate”; for `CC=C(C)C(=O)OCC1(C)C(O)CCC2(C)C1CCC1(C)C2CC=C2C3CC(C)(C)C(OC(=O)CCCCC)C(O)C3(CO)C(O)CC21C` (stereo not shown) [Tig—Hex—5] it is “moderate”.

As for `CC=C(C)C(=O)OCC1(C)C(O)CCC2(C)C1CCC1(C)C2CC=C2C3CC(C)(C)C(O)C(OC(=O)CCCCC)C3(CO)C(O)CC21C` (stereo not shown) [Tig—Hex—6], the Cytotoxicity activity entry is given as “moderate”. Consider `C=CCCC(=O)OCC12C(O)CC3(C)C(=CCC4C5(C)CCC(O)C(C)(COC(=O)C(C)=CC)C5CCC43C)C1CC(C)(C)C(O)C2O` (stereo not shown) [Tig—Pen—1], for which the Cytotoxicity activity result was “strong”. The same measure for `C=CCCC(=O)OCC12C(O)CC3(C)C(=CCC4C5(C)CCC(O)C(C)(COC(=O)C(C)=CC)C5CCC43C)C1CC(C)(C)C(OC(=O)CCC=C)C2O` (stereo not shown) [Tig—Pen—2]: “moderate”; for `C=CCCC(=O)OCC12C(O)CC3(C)C(=CCC4C5(C)CCC(O)C(C)(COC(=O)C(C)=CC)C5CCC43C)C1CC(C)(C)C(O)C2OC(=O)CCC=C` (stereo not shown) [Tig—Pen—3]: “moderate”.

The record behind these values is patent US20230340012A1, “NATURAL AND SYNTHETIC COMPOUNDS FOR TREATING CANCER AND OTHER DISEASES” (PACIFIC ARROW LIMITED, priority 2009, published 2023).
